Experiment: xn = mol fraction of the nth substance listed
Conditions: Liquid, Vibrating tube method

C=C(C)C(=O)OCCN(C)C [2-(dimethylamino)ethyl methylpropenoate] + CO
mass density [kg/m3]
Conditions	100 kPa	5000 kPa	10000 kPa	15000 kPa	20000 kPa	25000 kPa	30000 kPa	35000 kPa
293.15 K, x1 = 0.0227	806.56	811.24	815.62	819.73	823.64	827.39	831.04	834.64
293.15 K, x1 = 0.0807	837.79	842.2	846.3	850.16	853.82	857.37	860.86	864.36
293.15 K, x1 = 0.1196	853.33	857.5	861.44	865.18	868.77	872.24	875.62	878.97
293.15 K, x1 = 0.2003	877.11	881.14	884.9	888.45	891.85	895.18	898.5	901.87
293.15 K, x1 = 0.3189	898.63	902.57	906.24	909.71	913.03	916.26	919.46	922.7
293.15 K, x1 = 0.4003	908.22	912.08	915.72	919.18	922.49	925.73	928.92	932.12
293.15 K, x1 = 0.4502	912.84	916.76	920.42	923.87	927.16	930.33	933.44	936.53
293.15 K, x1 = 0.4914	916.03	919.88	923.47	926.87	930.13	933.31	936.47	939.66
293.15 K, x1 = 0.5451	919.46	923.35	926.95	930.34	933.58	936.74	939.88	943.07
293.15 K, x1 = 0.6446	924.39	928.12	931.65	935.02	938.27	941.45	944.62	947.8
293.15 K, x1 = 0.6899	926.07	929.92	933.48	936.82	940.01	943.12	946.23	949.4
293.15 K, x1 = 0.8265	930.1	933.94	937.53	940.91	944.15	947.29	950.41	953.56
293.15 K, x1 = 0.8957	931.56	935.27	938.82	942.24	945.55	948.77	951.92	955.03
293.15 K, x1 = 0.9213	931.89	935.76	939.37	942.76	946.01	949.17	952.32	955.5
293.15 K, x1 = 0.977	932.63	936.53	940.13	943.52	946.76	949.92	953.08	956.32
303.15 K, x1 = 0.0301	802.01	806.85	811.37	815.62	819.63	823.45	827.13	830.7
303.15 K, x1 = 0.0604	818.68	823.37	827.77	831.91	835.85	839.61	843.23	846.75
303.15 K, x1 = 0.1003	836.41	840.87	845.1	849.12	852.97	856.67	860.27	863.78
303.15 K, x1 = 0.1894	864.5	868.73	872.74	876.58	880.26	883.85	887.36	890.85
303.15 K, x1 = 0.3009	886	890.03	893.92	897.69	901.34	904.9	908.38	911.78
303.15 K, x1 = 0.4011	898.17	902.15	905.98	909.67	913.27	916.78	920.23	923.64
303.15 K, x1 = 0.4497	902.64	906.61	910.42	914.09	917.65	921.14	924.58	928.02
303.15 K, x1 = 0.5004	906.39	910.32	914.1	917.76	921.33	924.83	928.29	931.73
303.15 K, x1 = 0.5484	909.57	913.52	917.31	920.96	924.51	928	931.44	934.88
303.15 K, x1 = 0.6026	912.38	916.33	920.1	923.74	927.27	930.75	934.2	937.68
303.15 K, x1 = 0.701	916.45	920.39	924.17	927.81	931.36	934.84	938.28	941.72
303.15 K, x1 = 0.7881	919.15	923.04	926.8	930.44	934.01	937.52	941.01	944.48
303.15 K, x1 = 0.897	921.41	925.26	929.01	932.67	936.24	939.76	943.23	946.67
303.15 K, x1 = 0.9286	922.08	926.03	929.81	933.47	937.03	940.52	943.99	947.48
303.15 K, x1 = 0.961	922.67	926.57	930.33	933.98	937.54	941.04	944.51	947.99
313.15 K, x1 = 0.0303	792.52	797.34	802.01	806.47	810.73	814.85	818.84	822.75
313.15 K, x1 = 0.0601	808.67	813.36	817.9	822.24	826.41	830.42	834.31	838.11
313.15 K, x1 = 0.1002	826.53	831.11	835.57	839.84	843.93	847.86	851.66	855.32
313.15 K, x1 = 0.2005	857.05	861.4	865.62	869.66	873.55	877.31	880.98	884.59
313.15 K, x1 = 0.3009	876.08	880.25	884.34	888.29	892.1	895.78	899.34	902.8
313.15 K, x1 = 0.4008	888.55	892.6	896.62	900.51	904.28	907.92	911.43	914.81
313.15 K, x1 = 0.4516	893.1	897.1	901.09	904.98	908.76	912.41	915.91	919.27
313.15 K, x1 = 0.49	896.14	900.12	904.09	907.97	911.73	915.36	918.87	922.22
313.15 K, x1 = 0.552	900.13	904.12	908.1	911.97	915.72	919.34	922.83	926.18
313.15 K, x1 = 0.5881	902.29	906.26	910.2	914.04	917.76	921.35	924.82	928.16
313.15 K, x1 = 0.7048	907.14	911.12	915.08	918.92	922.65	926.25	929.72	933.06
313.15 K, x1 = 0.8042	910.23	914.21	918.18	922.04	925.78	929.4	932.87	936.18
313.15 K, x1 = 0.8998	912.3	916.37	920.38	924.25	927.99	931.6	935.1	938.49
313.15 K, x1 = 0.9373	913.06	917.05	921	924.83	928.56	932.18	935.71	939.17
313.15 K, x1 = 0.9651	913.5	917.5	921.47	925.34	929.11	932.78	936.35	939.83

Source: the NIST ThermoML archive (doi:10.1021/acs.jced.8b00975)
